In ChEMBL document CHEMBL1138704, “Farnesyl protein transferase inhibitors targeting the catalytic zinc for enhanced binding” (Bioorg Med Chem Lett, 2004) one finds IC50, Inhibitory activity and inhibition data, which are given here for six compounds.

Test [1] can be described thus: Inhibition of [3H]-FPP incorporation into H-ras CVLS by farnesyltransferase.
The target in test [2] is T1, Protein farnesyltransferase (Homo sapiens) (UniProt P49354+P49356). The test can be described thus: Inhibition of [3H]FPP incorporation into H-ras CVLS by farnesyltransferase. The class given is protein-complex assay.
Test [3] addresses T1, Protein farnesyltransferase (Homo sapiens). Nature of the test: Percent inhibition of [3H]FPP incorporation into H-ras CVLS by farnesyltransferase at 1.1 uM. In kind it is protein-complex assay.
Test [4] has the same target. The test can be described thus: Percent inhibition of [3H]FPP incorporation into H-ras CVLS by farnesyltransferase at 0.4 uM. The class given is protein-complex assay.

“And” between values parts separate entries of the source, which are not always exact repeats. Identical values can stand only once.

Usually IC50 stands for the point on the concentration scale where inhibition reaches its midpoint. High values mean a need for much substance, low ones inhibition by little substance. Compound `NC(=O)N1CCC(CC(=O)N2CCC([C@H]3c4ncc(Br)cc4CCc4cc(Cl)cc(Br)c43)CC2)CC1` [LONAFARNIB] gave a concentration for half-maximal inhibition (IC50) in test [1] of 2 nM. This counts as single-digit nanomolar.
The same measure, in the same setting: with `O=C(NCCCn1ccnc1)[C@@H]1CCCCN1C1c2ncc(Br)cc2CCc2cc(Cl)cc(Br)c21` (stereo partly specified) the figure was 0.9 nM and 0.4 nM.
For the compound `O=C(NCc1cccnc1)[C@@H]1CCCCN1C1c2ccc(Cl)cc2CCc2cc(Br)cnc21` (stereo partly specified), the Inhibitory activity in test [2] is 0.3 µM and 0.16 µM.
Usually inhibition stands for the percentage by which the read-out fell short of the control. Higher therefore signals a strong effect. In the case of `O=C(NCc1ccncc1)[C@H]1CCCCN1C1c2ccc(Cl)cc2CCc2cc(Br)cnc21` (stereo partly specified), the inhibition in test [3] is 18% and 27%.
Turning to `O=C(NCc1ccncc1)[C@@H]1CCCCN1C1c2ccc(Cl)cc2CCc2cc(Br)cnc21` (stereo partly specified), the inhibition in test [3] is 0% and 13%.
With `O=C(NCc1cccnc1)[C@H]1CCCCN1C1c2ccc(Cl)cc2CCc2cc(Br)cnc21` (stereo partly specified), the inhibition in test [4] is 0.4% and 11%.
